Test [1] deals with Human ES cells (KhES-1 strain). The test can be described thus: Effect of each Wnt signal transduction pathway inhibiting substance on production of cell mass containing neural tissue and nonneural epithelial tissue (Example 7). Type of test: cell-based. The following applies: inhibitor added from start of suspension culturing (IWP-2 2 or 5 μM, C-59 2 μM, IWP-L6 1 or 10 μM, LGK974 1 or 5 μM, KY 02111 1 or 5 μM, XAV939 1 μM) with SB-431542 1 μM; BMP4 1.5 nM on day 2; bright field observation day 10. On the procedure:
Human ES cells (KhES-1 strain) were cultured under feeder-free conditions according to the method described in Scientific Reports, 4, 3594 (2014). As the feeder-free medium, StemFit medium was used and, as the feeder-free scaffold, Laminin 511-E8 was used. Specific maintenance culturing operation was performed in the same manner as in Example 1.
The thus-prepared subconfluent human ES cells were washed with PBS, subjected to an enzyme treatment using Accumax, a mukessei medium medium for differentiation induction was added, and the cells were scraped from the surface of the culture dish by using a cell scraper and dispersed into single cells by pipetting. Thereafter, the aforementioned human ES cells dispersed into single cells were suspended in 100 μl of a serum-free medium at 1.2×10^4 cells per well of a non-cell-adhesive 96-well culture plate (PrimeSurface 96V-bottom plate, manufactured by SUMITOMO BAKELITE), and cultured in suspension under the conditions of 37° C., 5% CO2. As the serum-free medium (gfCDM+KSR) therefor, a serum-free medium which is a 1:1 mixture of F-12+Glutamax medium and IMDM+Glutamax medium supplemented with 5% Knockout Serum Replacement, 450 μM 1-mono thioglycerol, 1× Chemically defined lipid concentrate, 50u/ml penicillin-50 μg/ml streptomycin was used. At the time of the start of suspension culturing (day 0 from the start of suspension culturing, start of step 1), Y27632 (final concentration 20 μM) and SB-431542 (1 μM) were added to the aforementioned serum-free medium. As the Wnt signal transduction pathway inhibiting substance, IWP-2 (manufactured by Tocris Bioscience, 2 or 5 μM), C-59 (manufactured by Cayman Chemicals, 2 μM), IWP-L6 (manufactured by AdooQ bioscience, 1 or 10 μM), LGK974 (manufactured by Cayman Chemicals, 1 or 5 μM), KY 02111 (manufactured by Cayman Chemicals, 1 or 5 μM), or XAV939 (manufactured by Cayman Chemicals, 1 μM) was added at the start of the suspension culturing, and the condition with the addition of DMSO alone as a control of no addition of a Wnt signal transduction pathway inhibiting substance was performed. Thereafter, a serum-free medium not containing Y27632 and containing each Wnt signal transduction pathway inhibiting substance, SB-431542 and BMP4 was added at 100 μl per well on day 2 from the start of suspension culturing. BMP4 was added at 3 nM to the medium so that the final concentration in the well could be 1.5 nM. A half amount of the medium was changed with a serum-free medium not containing Y27632 or BMP and containing each Wnt signal transduction pathway inhibiting substance and SB-431542 on day 6 from the start of suspension culturing. Bright field observation was performed under an inverted microscope (manufactured by KEYENCE CORPORATION, BIOREVO) on day 10 from the start of suspension culturing (FIGS. 8A-K).

Test [2] has as its system Human ES cells (KhES-1 strain). The test can be described thus: Effect of compound pre-treatment before differentiation induction on quality grade of cell masses (Example 8). Type of test: cell-based. The note with it: day 15 of differentiation induction; for number of Grade 1 cell masses (near spherical, not less than 80% of circumference coated with nonneural epithelium) / number of Grade 2 cell masses (80% to 40% of circumference coated with nonneural epithelium, or distorted shape) / number of Grade 3 cell masses (nonneural epithelium on surface not more than 40%): of 32 cell masses, pre-treatment 6 days after seeding (300 nM SAG and/or 5 μM SB-431542). On the procedure: Human ES cells (KhES-1 strain) were cultured under feeder-free conditions according to the method described in Scientific Reports, 4, 3594 (2014). As the feeder-free medium, StemFit medium was used and, as the feeder-free scaffold, Laminin 511-E8 was used. Specific maintenance culturing operation was performed in the same manner as in Example 1. Cells under 4 conditions were prepared including conditions in which, when the cultured cells are used for differentiation induction, nothing is simultaneously added with medium change with […] medium (Control), conditions in which 300 nM SAG alone is added (+300 nM SAG), conditions in which 5 µM SB-431542 alone is added (+5 μM SB-431542), and conditions in which SAG and SB431542 are simultaneously added (+SAG/SB) at 6 days after seeding. The next day of the above-mentioned treatment, human ES cells under 4 conditions that reached subconfluence were each subjected to differentiation induction by suspension culturing into a cell mass containing neural tissue and nonneural epithelial tissue according to the method described in Example 1. Thereafter, on day 15 of differentiation induction, bright field observation was performed using an inverted microscope (manufactured by KEYENCE CORPORATION, BIOREVO). The cell masses formed after each pre-treatment were evaluated in three stages of cell masses with near spherical form in which not less than 80% of the whole circumference is coated with nonneural epithelium (Grade 1, e.g.-FIG. 9A); cell masses in which 80% to 40% of the whole circumference is coated with nonneural epithelium, or with a distorted shape (Grade 2, e.g.-FIG. 9B); and cell masses in which the proportion of nonneural epithelium on the cell mass surface is not more than 40% (Grade 3, e.g.=FIG. 9C).

As for `Cc1cc(-c2ccc(CC(=O)Nc3ccc(-c4cccnc4)cc3)cc2)ccn1` [C-59], in test [1], the “formation of cell mass having nonneural epithelial tissue on the surface” value (“formation” for short) is given as “a cell mass having nonneural epithelial tissue on the surface was formed”.

Consider `Cc1ccc2nc(NC(=O)CSc3nc4c(c(=O)n3-c3ccccc3)SCC4)sc2c1` [IWP-2], for which the “formation” value in test [1] is “a cell mass having nonneural epithelial tissue on the surface was formed”.

Regarding `O=C(CSc1nc2c(c(=O)n1-c1ccccc1)SCC2)Nc1ccc(-c2ccccc2)cn1` [IWP-L6], the “formation” value in test [1] is “a cell mass having nonneural epithelial tissue on the surface was formed”.

With `COc1ccc(CCC(=O)Nc2nc3ccc(Cl)cc3s2)cc1OC` [KY02111], the “formation” value in test [1] is reported as “a cell mass having nonneural epithelial tissue on the surface was formed”.

Take `Cc1cc(-c2ncc(CC(=O)Nc3ccc(-c4cnccn4)cn3)cc2C)ccn1` [LGK974]: in test [1], the “formation” value was “a cell mass having nonneural epithelial tissue on the surface was formed”.

With `CNC1CCC(N(Cc2cccc(-c3ccncc3)c2)C(=O)c2sc3ccccc3c2Cl)CC1` (stereo not shown) [SAG, N-Methyl-N′-(3-pyridinylbenzyl)-N′-(3-chlorobenzo[b]thiophene-2-carbonyl)-1,4-diaminocyclohexane], in test [2], the “number of Grade 1 cell masses (near spherical, not less than 80% of circumference coated with nonneural epithelium)” value was found to be 10; the “number of Grade 2 cell masses (80% to 40% of circumference coated with nonneural epithelium, or distorted shape)” value is reported as 18; the “number of Grade 3 cell masses (nonneural epithelium on surface not more than 40%)” value amounted to 4.

Regarding `NC(=O)c1ccc(-c2nc(-c3ccc4c(c3)OCO4)c(-c3ccccn3)[nH]2)cc1` [SB-431542, 4-(5-benzol[1,3]dioxol-5-yl-4-pyridin-2-yl-1H-imidazol-2-yl)-benzamide], in test [2], the “number of Grade 1 cell masses (near spherical, not less than 80% of circumference coated with nonneural epithelium)” value is 28; the “number of Grade 2 cell masses (80% to 40% of circumference coated with nonneural epithelium, or distorted shape)” value was 4; the “number of Grade 3 cell masses (nonneural epithelium on surface not more than 40%)” value is listed as 0. Further, in test [2] (pre-treatment 6 days after seeding), the “proportion of Grade 1 cell masses as compared to Control with no treatment” value is “drastically improved”.

As to `Oc1nc(-c2ccc(C(F)(F)F)cc2)nc2c1CSCC2` [XAV939], the “formation” value in test [1] was “a cell mass having nonneural epithelial tissue on the surface was formed”.

The values are drawn from US20210071137A1, “PRODUCTION METHOD FOR CELL MASS INCLUDING NEURAL CELLS/TISSUE AND NON-NEURAL EPITHELIAL TISSUE, AND CELL MASS FROM SAME” (SUMITOMO CHEMICAL COMPANY, LIMITED, priority 2017, published 2021).
